Results: paper PMC7618597, “Dual Nurr1/RXR agonism of valerenic acid and synthetic mimetics enables dimer-selective Nurr1 modulation” (ACS medicinal chemistry letters, 2025)

Biological target: T1, Nurr1 homodimer (Homo sapiens, UniProt P43354)
T1 construct: Tb^3+-cryptate labeled and sGFP-labeled Nurr1 LBD proteins; FRET acceptor consisted of sGFP-Nurr1 LBD
Assay: Nurr1 LBD homodimerization assay (HTRF)
Type: biochemical
Conditions: 30 μM, Tb3+-cryptate and sGFP labeled Nurr1 LBD
Protocol: To determine the molecular response of the Nurr1:RXR heterodimer on dual agonist binding, we employed homogenous time-resolved fluorescence resonance energy transfer (HTRF) based assays with labeled Nurr1 and RXR LBD proteins. Tb^3+-cryptate as streptavidin conjugate served as FRET donor and was coupled to biotinylated proteins. sGFP fusion proteins of the receptors of interest were used as FRET acceptors. Ligand effects on dimer formation were determined by titrating the sGFP-labeled dimer partner with a fixed concentration of the Tb^3+-labeled counterpart. […] The same effect was also observable for the natural product 1 (Figure S3).
Nurr1 dimerization assays (HTRF). Modulation of Nurr1 LBD homodimerization and heterodimerization of the LDBs of Nurr1 and RXRα was investigated by HTRF as reported previously4. Nurr1 LBD or RXRα LBD proteins labeled with sGFP were titrated against a fixed concentration of Tb3+-cryptate as streptavidin conjugate (Tb-SA) (610SATLF, Revvity) coupled to biotinylated Nurr1 LBD protein in the presence of test compounds at 30 µM or absence of compound as a negative control (apo). Assay solutions were prepared in buffer containing 25 mM HEPES pH 7.5, 150 mM KF, 5% (m/v) glycerol, 5 mM DTT, 0.1% (m/v) CHAPS and 1%
DMSO. The FRET donor complex was formed from biotinylated Nurr1 LBD (final concentration 0.188 nM) and Tb-SA (0.375 nM) and was kept constant. For the homodimerization assay, the FRET acceptor consisted of sGFP-Nurr1 LBD, which was titrated from 0.5 µM, while free sGFP was added to keep the total GFP content stable at 0.5 µM. […] Samples were equilibrated at room temperature for 2 h and fluorescence intensities (FI) after excitation at 340 nm were recorded at 520 nm for sGFP acceptor fluorescence and at 620 for Tb-SA donor fluorescence on a SPARK plate reader (Tecan Group Ltd.). […]
Evaluation of Nurr1-regulated gene expression. […] RNA concentration and purity were assessed using a NanoDrop One UV-vis spectrophotometer (Thermo Fisher Scientific) at 260/280 nm. […]

T1 sequence (P43354 360-595 limits assumed): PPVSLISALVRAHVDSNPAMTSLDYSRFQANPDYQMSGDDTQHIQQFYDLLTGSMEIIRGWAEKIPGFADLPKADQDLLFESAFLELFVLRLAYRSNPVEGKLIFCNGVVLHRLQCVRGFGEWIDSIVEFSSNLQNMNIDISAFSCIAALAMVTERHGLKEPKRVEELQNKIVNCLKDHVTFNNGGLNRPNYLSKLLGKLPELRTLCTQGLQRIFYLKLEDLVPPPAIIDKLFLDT

| Structure (SMILES) | Nurr1 homodimer formation |
| --- | --- |
| Cc1c2c(n(-c3ccc(CC(=O)O)cc3)c1C)CCC(F)(F)C2 [compound 2] | markedly diminished |
| Cc1c(C)n(-c2ccc(CC(=O)O)cc2)c2ccc(F)cc12 [compound 3] | markedly diminished |
